Non-standard residues stand in square brackets, D forms with d. Residues, ends and D or L forms follow the SMILES beside them. Nva = CCC[C@H](N)C(=O)O
Legend:
[1] = tested on: HepG2 cells; assay: PA induced lipid accumulation, Oil Red O staining; format: cell-based, human; settings: HepG2, 0.25 mM PA + 200 μM peptide, 24 h; in words
Procedure: (§1) Hepatoma carcinoma cell line HepG2 and human hepatic activated stellate cell line LX2 used in this study were purchased from Type Culture Collection of the Chinese Academy of Sciences (Shanghai, China). Cells were cultured in Dulbecco’s modified Eagle’s medium (DMEM) with 10% fetal bovine serum (FBS), supplemented with 1% penicillin–streptomycin (ThermoFisher Scientific, USA) at 37 °C in a humidified atmosphere of 5% CO2. In PA (Sigma, USA) induced lipid accumulation cell model, HepG2 cells were seeded into a 6-well plate at 5E5 cells per well. 0.25 mM PA and/or 200 μM candidate peptides were co-incubated with cells for 24 h. Then Oil Red O staining was performed to evaluate the accumulation of lipid droplets. BSA (Sigma, USA) was used in this experiment as the negative control. For LX2 cells, 2E5 cells were seeded, then the adherent cells were exposed to 200 μM candidate peptides for another 48 h. Next, the cell protein was obtained and western blotting was performed. Candidate peptides were diluted in DMEM in a stock concentration of 1 M.

[2] = tested on: gene expression in PA induced HepG2 cells; assay: Quantitative RT-PCR in PA induced HepG2 cells; format: cell-based, human; settings: for IL-1a mRNA, relative expression, Supplementary Figure 11a / IL-6 mRNA, relative expression, Supplementary Figure 11a / IL-8 mRNA, relative expression, Supplementary Figure 11a / TNFa mRNA, relative expression, Supplementary Figure 11a: PA induced HepG2 cells, PA+JT003
Procedure: as §1
Liver total RNA was extracted by using Trizol reagent following the manufacture’s instruction (TransGen Biotech, China). The concentration of RNA was measured by Nanodrop 2000 (ThermoFisher Scientific, USA). cDNA was transcribed from 10ug total RNA with First Strand cDNA synthesis Super Mix (TransGen Biotech, China). The cDNA was diluted 1/50 and 1.0 uL were used as a template for qPCR. qPCR was performed with SYBR Green qPCR Super Mix (TransGen Biotech, China) in the Light Cycler 480 Real-Time PCR System (Roche, Swiss). Reference gene β-actin was used for data normalization. mRNA expression was analyzed with specific primers listed in Supplementary Table 2.

[3] = tested on: HFD + MCD diet NASH mice; assay: HFD combined with MCD diet NASH mice: weight gain, HE steatosis area; format: in vivo, mouse; settings: HFD 16 weeks + MCD diet last 4 weeks; compared with ADP355; in words
Procedure: (§2) The NASH model was conducted with feeding a HFD for 16 weeks combine with a MCD diet (Methionine/Choline Deficient Diet, Medicience, China) in the last 4 weeks. Mice administered a MCS diet (Methionine/Choline Sufficient Diet, Medicience, China) serves as control group. NAFLD or NASH mice treated with JT003 for 4 weeks were used to evaluate the pharmacological effects (n = 6; 500 μg kg^−1; daily intraperitoneal injection). Food and water were provided ad libitum. The body weight of mice was examined every 3 days. The diet was renewed every 7 days. JT003 was diluted in PBS.
The levels of TG and HYP in liver tissue were detected with certain commercial assay kit (Nanjing Jiancheng Bioengineering Institute, China). Formalin-fixed liver tissues were embedded in paraffin, sectioned into 5 μm slices. After deparaffinization and rehydration of the section slices, they were stained with Haematoxylin and Eosin or Periodic Acid-Schiff. For the detection of liver collagen content, Sirius Red staining for collagen was performed. […] The cryostat-cut slices were stained with freshly prepared Oil Red O working solution for 7 min Two independent experimenters who were blinded to the treatment evaluated the staining slides and analyzed the score for steatosis, glucogen accumulation and collagen proliferation area.

[4] = tested on: CCl4 induced liver fibrosis mice; assay: CCl4 induced liver fibrosis mice: liver appearance, body weight, HE, Sirius red, IHC (αSMA, COL1α1, CD68); format: in vivo, mouse; settings: in words
Procedure: Male mice liver fibrosis was induced by intraperitoneal injection of 20% CCl4 (Sigma, USA) diluted in corn oil (Aladdin, China) every 3 days for 6 weeks (n = 6; 5 ml kg^−1 body weight). Mice injected with equivalent volume of corn oil serves as control group (n = 6). Liver fibrosis mice treated with JT003 for 3 weeks were used to evaluated the pharmacological effects (n = 6; 500 μg kg^−1; daily intraperitoneal injection).
(§3) The levels of TG and HYP in liver tissue were detected with certain commercial assay kit (Nanjing Jiancheng Bioengineering Institute, China). Formalin-fixed liver tissues were embedded in paraffin, sectioned into 5 μm slices. After deparaffinization and rehydration of the section slices, they were stained with Haematoxylin and Eosin or Periodic Acid-Schiff. For the detection of liver collagen content, Sirius Red staining for collagen was performed. OCT-embedded frozen liver tissues were sectioned into 12 μm slices, and Oil Red O staining was performed. The cryostat-cut slices were stained with freshly prepared Oil Red O working solution for 7 min Two independent experimenters who were blinded to the treatment evaluated the staining slides and analyzed the score for steatosis, glucogen accumulation and collagen proliferation area.
Paraffin-embedded liver slices were deparaffinized and rehydrated, antigen retrieval was performed under the high pressure and temperature in 0.01 M sodium citrate buffer (pH = 6.0). To quench the endogenous peroxidase activity, the slices were then incubated with 1% hydrogen peroxide in methanol for 10 min in room temperature. Then slices were incubated with corresponding primary antibodies. After washing, HRP-conjugated secondary antibodies specific to the species of the primary antibodies were used. After the section were developed with DAB, hematoxylin staining was performed for cell counting.

[5] = tested on: liver protein expression of HFD induced NASH mice; assay: HFD mice: liver western blot; format: in vivo, mouse; settings: JT003 500 μg kg−1, in words
Procedure: as §2
Total protein was isolated from cells or liver samples using RIPA lysis buffer (50.0 mM Tris-HCl (pH = 8.0), 150.0 mM NaCl, 0.02% NaN3, 0.1% SDS, 1% NP-40, 0.5% deoxysodium cholate, 1 mM EDTA, […]). The protein concentration was quantified with BCA kit (Pierce, ThermoFisher Scientific, USA). Thirty micrograms protein were separated by 10 or 12% sodium dodecyl sulfate-polyacrylamide gel electrophoresis depending on the band of target protein, then transferred onto equilibrated polyvinylidene difluoride membrane (PVDF, Immobilon®-PSQ transfer membranes, Merck Millipore, Germany). Membranes were incubated with primary antibodies overnight at 4 °C. Specific antibodies were listed in Supplementary Table 3. After incubation with the secondary antibody, proteins were detected by enhanced chemiluminescence (Glarity^TM Western ECL Substrate, Bio-Rad, USA) and the signals were recorded and quantified with Tanon-Image Software (Shanghai, China). Reference antibody GAPDH were used for data normalization.

[6] = tested on: HFD induced NASH mice; assay: HFD mice: liver histology (HE, PAS, Oil Red O); format: in vivo, mouse; settings: JT003 500 μg kg−1 i.p. daily 4 weeks, in words
Procedure: as §2, §3

CCC[C@H](NC(=O)[C@@H]1CCCN1)C(=O)N[C@@H](CC(C)C)C(=O)N[C@@H](Cc1ccc(O)cc1)C(=O)N[C@@H](Cc1ccc(O)cc1)C(=O)N[C@@H](Cc1ccccc1)C(=O)N[C@@H](C)C(N)=O [JT003] (H-P[Nva]LYYFA-NH2)
lipid droplets accumulation caused by PA (Oil Red O) [1]: exhibited the best potential | lipogenesis (FAS, SREBP-1C, SREBP-2 and ACC1) and fatty acid β-oxidation (ACOX, LCAD and PDK4) genes ([2]; HepG2, 0.25 mM PA + 200 μM JT003, in words): meliorated notably | inflammatory factors and ER-mitochondrial axis dysfunction (mRNA) ([2]; PA induced HepG2, 200 μM JT003, in words): meliorated notably | IL-1a mRNA, relative expression, Supplementary Figure 11a ([2]; replicate 1): 1.056 | IL-6 mRNA, relative expression, Supplementary Figure 11a ([2]; replicate 1): 0.3197 | IL-8 mRNA, relative expression, Supplementary Figure 11a ([2]; replicate 1): 0.8479 | TNFa mRNA, relative expression, Supplementary Figure 11a ([2]; replicate 1): 0.6008 | IL-1a mRNA, relative expression, Supplementary Figure 11a ([2]; replicate 2): 0.8256 | IL-6 mRNA, relative expression, Supplementary Figure 11a ([2]; replicate 2): 0.3197 | IL-8 mRNA, relative expression, Supplementary Figure 11a ([2]; replicate 2): 0.8134 | TNFa mRNA, relative expression, Supplementary Figure 11a ([2]; replicate 2): 0.8039 | IL-1a mRNA, relative expression, Supplementary Figure 11a ([2]; replicate 3): 0.9853 | IL-6 mRNA, relative expression, Supplementary Figure 11a ([2]; replicate 3): 0.4368 | IL-8 mRNA, relative expression, Supplementary Figure 11a ([2]; replicate 3): 0.8277 | TNFa mRNA, relative expression, Supplementary Figure 11a ([2]; replicate 3): 0.7928 | IL-1a mRNA, relative expression, Supplementary Figure 11a ([2]; replicate 4): 0.9145 | IL-6 mRNA, relative expression, Supplementary Figure 11a ([2]; replicate 4): 0.3522 | IL-8 mRNA, relative expression, Supplementary Figure 11a ([2]; replicate 4): 0.8368 | TNFa mRNA, relative expression, Supplementary Figure 11a ([2]; replicate 4): 0.7583 | lipid accumulation in HFD combine with MCD diet NASH mouse model [3]: inhibited lipid accumulation significantly with a 20 times lower dosage | inflammation, necrosis and fibrosis area (HE and sirius red staining) ([4]; CCl4 induced liver fibrosis mice, administration dosages of 0.5 mg kg−1 and 2 mg kg−1): significantly decreased | liver adhesion (dissected assays) ([4]; CCl4 induced liver fibrosis mice): reduced | IHC staining of CD68 (macrophage infiltration) ([4]; CCl4 mice, JT003 500 μg kg−1): markedly reduced the inflammation | immunohistochemical staining for αSMA and COL1α1 ([4]; CCl4 mice, JT003 500 μg kg−1): confirmed the improvement of liver fibrosis | PI3K and Akt phosphorylation in liver tissue [5]: increased | AMPK and PPARα signaling (western blotting) ([5]; liver): activated apparently | expression of downstream factor PPARγ ([5]; liver): inhibited | phosphorylation of PERK and its downstream eIF2α and JNK ([5]; liver): decreased notably | glycogen over accumulation (PAS staining and hepatocyte glycogen analysis) [6]: largely eliminated | lipid droplets in the liver (Oil red o staining) [6]: remarkably decreased lipid droplets | steatosis and inflammation area (HE staining) [6]: decreased
